Data set [1] relates to HCT-116. As to the kind of experiment: GI arrest (1 fold increase over control) in HCT116 cells was determined by flow cytometry after 24 hr incubation. It is filed as functional, Homo sapiens.
Data set [2] relates to HCT-116. As to the kind of experiment: GI arrest (3 fold increase over control) in HCT116 cells was determined by flow cytometry after 24 hr incubation. It is filed as functional, Homo sapiens.
For data set [3], the target named is Cyclin-dependent kinase 4 (Homo sapiens) (UniProt P11802). As to the kind of experiment: Inhibition of Rb phosphorylation at the CDK4 specific Ser780 residue (3 fold increase over control) after 24 hr incubation in HCT116 cells. It is filed as functional, cell-based. Particulars: HCT-116, concentration not given here.
Sequence of Cyclin-dependent kinase 4 (Homo sapiens) (P11802 whole entry): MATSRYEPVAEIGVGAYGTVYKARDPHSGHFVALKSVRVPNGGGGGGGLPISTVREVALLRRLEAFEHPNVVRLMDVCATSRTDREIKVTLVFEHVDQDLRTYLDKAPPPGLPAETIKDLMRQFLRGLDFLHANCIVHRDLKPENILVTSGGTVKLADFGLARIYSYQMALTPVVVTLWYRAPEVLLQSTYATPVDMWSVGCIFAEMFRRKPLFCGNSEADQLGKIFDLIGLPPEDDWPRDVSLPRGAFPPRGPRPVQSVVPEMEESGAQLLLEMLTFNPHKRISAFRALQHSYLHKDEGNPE
Data set [4] has as its target T1, Cyclin-dependent kinase 4/cyclin D1 (Homo sapiens, UniProt P11802). As to the kind of experiment: Inhibitory activity against Cyclin D1-cyclin-dependent kinase 4 in enzymatic assay by measuring phosphorylation of RbING. It is filed as protein-complex assay.
The target of data set [5] is cAMP-dependent protein kinase (PKA) (Homo sapiens, UniProt P22694+P17612+P22612). As to the kind of experiment: Inhibitory activity against Protein kinase A (Histone). It is filed as protein assay.
The subject of a further data set is NCI-H460. In words: In vitro antiproliferative activity against human carcinoma cell line H460 (lung). It is filed as functional, cell-based.
Data set [6] addresses Cyclin-dependent kinase 4 (Homo sapiens) (UniProt P11802). As to the kind of experiment: Inhibition of Rb phosphorylation at the CDK4 specific Ser780 residue (1 fold increase over control) after 24 hr incubation in HCT116 cells. It is filed as functional, cell-based. The conditions noted are these: HCT-116, concentration not given here.
Data set [7] relates to HCT-116. In words: In vitro antiproliferative activity against human carcinoma cell line HCT116 (colon). It is filed as functional, cell-based.
Data set [8] concerns the target Cyclin-dependent kinase 2/cyclin E1 (Homo sapiens, UniProt P24941). In words: Inhibition of RbING phosphorylation by Cyclin E1-cyclin-dependent kinase 2. It is filed as protein-complex assay.
Data set [9] concerns the target T1, Cyclin-dependent kinase 4/cyclin D1. In words: Inhibitory activity against Cyclin D1-cyclin-dependent kinase 4 in enzymatic assay by measuring phosphorylation of Rb21. It is filed as protein-complex assay.
In another data set the target is CaM kinase II (Homo sapiens, UniProt Q13557+Q13555+Q13554+Q9UQM7). As to the kind of experiment: Inhibitory activity against Calcium/calmodulin-dependent protein kinase type II. It is filed as protein assay.
The target in data set [10] is Cyclin-dependent kinase 2/cyclin E (Homo sapiens, UniProt P24941). In words: Inhibitory activity against Cyclin E-cyclin-dependent kinase 2 in enzymatic assay by measuring phosphorylation of RbING. It is filed as protein-complex assay.
The target in data set [11] is Cyclin-dependent kinase 4 (Homo sapiens) (UniProt P11802). As to the kind of experiment: Inhibition of Cyclin-dependent kinase 4 specific Ser780 Rb phosphorylation, 3 fold increase over 24 hr incubation in HCT116 cells. It is filed as functional, cell-based. Particulars: HCT-116; concentration not given here.
Data set [12] can be described thus: Aqueous solubility (in situ) in D5W after 1 week was determined. The conditions noted are these: for solubility at 168 h: D5W. It is filed as physicochemical.
The test system of data set [13] is HCT-116. As to the kind of experiment: (§1) Flow cytometry of HCT116 cells, G1 arrest (3 fold increase over control) after 24 hr r. It is filed as functional.
For data set [14], the system named is HCT-116. As to the kind of experiment: Flow cytometry of HCT116 cells, G1 arrest (2.6 fold increase over control) after 24 hr r. It is filed as functional, Homo sapiens.
Data set [15] has as its system HCT-116. In words: Flow cytometry of HCT116 cells, G1 arrest (fold increase over control) after 24 hr r incubation. It is filed as functional, Homo sapiens.
For data set [16], the system named is HCT-116. As to the kind of experiment: Flow cytometry of HCT116 cells, G1 arrest ( fold increase over control) after 24 hr r. It is filed as functional, Homo sapiens.
Data set [17] has as its system HCT-116. As to the kind of experiment: Flow cytometry of HCT116 cells, G1 arrest (1 fold increase over control) after 24 hr r. It is filed as functional, Homo sapiens.
Data set [18] concerns HCT-116. The data set is described as §1. It is filed as functional, Homo sapiens.

Results on 13 molecules are retold here after ChEMBL document CHEMBL1136094, “Novel, potent and selective cyclin D1/CDK4 inhibitors: indolo[6,7-a]pyrrolo[3,4-c]carbazoles” (Bioorg Med Chem Lett, 2003).

In brackets after ≈: the same amount, converted by molar mass.

T1 sequence (P11802 whole entry): as above
T1 sequence (P24385 whole entry, further chain): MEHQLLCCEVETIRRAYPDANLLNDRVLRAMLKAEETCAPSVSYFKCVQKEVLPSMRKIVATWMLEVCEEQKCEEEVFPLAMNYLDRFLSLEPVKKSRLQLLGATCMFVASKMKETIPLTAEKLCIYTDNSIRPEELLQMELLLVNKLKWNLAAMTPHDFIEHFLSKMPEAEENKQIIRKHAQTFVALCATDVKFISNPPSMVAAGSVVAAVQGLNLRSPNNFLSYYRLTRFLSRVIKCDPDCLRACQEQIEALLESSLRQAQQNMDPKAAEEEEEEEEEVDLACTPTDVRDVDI

With `Cl.Cn1ccc2ccc3c4[nH]c5c(CCN6CCOCC6)cccc5c4c4c(c3c21)C(=O)NC4=O`, the Fold increase in the data set on HCT-116 [1] is 1.2; with HCT-116 [2], 2.3.
On to `COc1cc2c3[nH]c4ccccc4c3c3c(c2c2c1ccn2C)C(=O)NC3=O`, for which the values for the inhibition in data set [3] and in data set [6] were 86% and 71%, respectively. The half-inhibitory concentration (IC50) in data set [4] was 0.054 µM; in data set [5] it was 13.2 µM; in the data set with NCI-H460, 0.71 µM; in the data set on HCT-116 [7], 1.13 µM; in [8] it was 0.035 µM. In addition, the Fold increase in the data set on HCT-116 [1] was found to be 1.2; in the data set on HCT-116 [2], 2.2.
With `Cn1ccc2ccc3c4[nH]c5c(CCN[C@H]6CC[C@H](O)CC6)cccc5c4c4c(c3c21)C(=O)NC4=O`, the inhibition in data set [3] was determined as 87%; in [6], 78%. Further, the IC50 in [4] was determined as 0.053 µM; in [9], 0.005 µM; in data set [5] it was 9.81 µM; in the data set on NCI-H460, 2.82 µM; in the data set on HCT-116 [7], 1.23 µM; on CaM kinase II, 0.049 µM. In addition, the half-maximal inhibitory concentration (IC50) in data set [10] was determined as 0.45 µM. In addition, the Fold increase in the data set on HCT-116 [1] is given as 2.
On to `COc1ccc2c3c4c(c5c(ccc6ccn(C)c65)c3n(CCN[C@H]3CC[C@H](O)CC3)c2c1)C(=O)NC4=O`, for which the 50% inhibitory concentration (IC50) in data set [4] is 0.063 µM; in data set [9], 0.023 µM; in [5], 18 µM; in the data set on NCI-H460 it was 1.05 µM; in the data set with HCT-116 [7] it was 0.89 µM; at CaM kinase II, 1.17 µM. This molecule also had an IC50 in [10] of 0.902 µM. Also, the inhibition in data set [11] came to 95%; in data set [6], 67%. Also, in data set [12], the concentration in solution (solubility at 168 h) came to 7800 µg/mL (≈ 15.3 mM). The Solubility in [12] (buffer, 168 h) was 7800 µg/mL (≈ 15.3 mM). In addition, the Fold increase in the data set on HCT-116 [13] and in the data set on HCT-116 [2] was 2 in each case.
As for `Cn1ccc2ccc3c4[nH]c5c(CCN6CCC(C(N)=O)CC6)cccc5c4c4c(c3c21)C(=O)NC4=O`, the values for the inhibition in data set [3] and in data set [6] were 55% and 52%, respectively. The IC50 in data set [4] came out at 0.051 µM; in data set [9], 0.005 µM; in data set [5], 5.89 µM; in the data set on NCI-H460, 1.35 µM; in the data set on HCT-116 [7], 1 µM; on CaM kinase II, 0.025 µM. In data set [10], this molecule displayed an IC50 of 0.796 µM. Moreover, the Fold increase with HCT-116 [1] was determined as 1.9; with HCT-116 [2], 2.2.
As to `COc1ccc2c3c4c(c5c(ccc6ccn(C)c65)c3n(CCCN3CCC(C(N)=O)CC3)c2c1)C(=O)NC4=O`, the inhibition was determined as 67% in data set [3] and 58% in data set [6]. Also, the IC50 in data set [4] turned out to be 0.077 µM; in data set [9], 0.013 µM; in [5], 3.38 µM; with NCI-H460, 2.44 µM; in the data set with HCT-116 [7], 1.96 µM; at CaM kinase II, 3.05 µM. Moreover, in data set [10], half-maximal inhibition (IC50) required 1 µM. Moreover, the Fold increase in the data set with HCT-116 [1] is recorded as 1.9; in the data set on HCT-116 [14], 2.5.
On to `COc1ccc2c3c4c(c5c(ccc6ccn(C)c65)c3n(CCNCCO)c2c1)C(=O)NC4=O`, for which the figures for the inhibition in [3] and in [6] were 92% and 71%, respectively. For the same molecule, the IC50 was 0.035 µM in data set [4]; 0.021 µM in data set [9]; 3.74 µM in [5]; 1.31 µM in the data set on NCI-H460; 1.47 µM in the data set with HCT-116 [7]; 0.527 µM on CaM kinase II. The IC50 in data set [10] is 0.089 µM. In the data set on HCT-116 [1], this molecule came in with a Fold increase of 3.1. The amount in solution in data set [12] (solubility at 168 h) came to 6000 µg/mL (≈ 13.1 mM).
In the case of `Cn1ccc2ccc3c4[nH]c5ccccc5c4c4c(c3c21)C(=O)NC4=O`, the inhibition in [3] was 97%; in data set [6], 63%. The Fold increase with HCT-116 [15] turned out to be 1.4; in the data set on HCT-116 [16], 2.5. Also, the IC50 in data set [4] was 0.047 µM; in data set [9] it was 0.022 µM; in data set [5], more than 2 µM; with NCI-H460, 1.17 µM; in the data set with HCT-116 [7] it was 2.11 µM; in data set [10], 0.075 µM.
Take `COc1cc2ccn(C)c2c2c3c(c4c5ccccc5[nH]c4c12)C(=O)NC3=O`: the inhibition in [3] stood at 77%; in data set [6], 56%. Moreover, the half-maximal inhibitory concentration (IC50) is 0.032 µM in data set [4]; 0.018 µM in [9]; 0.69 µM with NCI-H460; 1.9 µM in the data set on HCT-116 [7]; 0.067 µM in data set [10]. The Fold increase in the data set with HCT-116 [1] was 1.8; in the data set with HCT-116 [2] it was 2.1.
On to `Cn1ccc2ccc3c4[nH]c5c(CCO)cccc5c4c4c(c3c21)C(=O)NC4=O`, for which the Fold increase stood at 1.4 in the data set on HCT-116 [17] and 2.7 in the data set with HCT-116 [18]. The inhibition in data set [3] came out at 92%; in data set [6], 60%. In addition, the concentration for half-maximal inhibition (IC50) in data set [4] was 0.082 µM; in [9], 0.075 µM; in data set [5], more than 2 µM; in the data set with HCT-116 [7], 1.13 µM; in [10], 0.21 µM.
For the molecule `Cn1ccc2ccc3c4[nH]c5c(CCN6CCOCC6)cccc5c4c4c(c3c21)C(=O)NC4=O`, the half-maximal inhibitory concentration (IC50) in data set [4] was 0.054 µM; in [9], 0.015 µM; in data set [5], more than 20 µM; in the data set with NCI-H460 it was 1.91 µM; in the data set on HCT-116 [7] it was 1.63 µM; at CaM kinase II it was 0.177 µM. The concentration for half-maximal inhibition (IC50) in data set [10] was determined as 1.28 µM. Further, the Fold increase in the data set on HCT-116 [1] turned out to be 1.5; in the data set with HCT-116 [2] it was 2.2. The molecule further had a solubility at 168 h in data set [12] of 8700 µg/mL (≈ 19.2 mM).
As to `Cn1ccc2ccc3c4[nH]c5c(CCN6CCCCC6)cccc5c4c4c(c3c21)C(=O)NC4=O`, the figures for the inhibition in data set [3] and in [6] were 78% and 69%, respectively. Besides, the IC50 came out at 0.045 µM in [4]; 9.14 µM in [5]; 2.47 µM with NCI-H460; 2.12 µM in the data set with HCT-116 [7]; 0.062 µM at CaM kinase II; 1.06 µM in data set [10]. In addition, the Fold increase with HCT-116 [1] was determined as 1.8; with HCT-116 [2], 2.1. In data set [12], this molecule registered a solubility at 168 h of 8500 µg/mL (≈ 18.9 mM).
Consider `COc1ccc2c3c4c(c5c(ccc6ccn(C)c65)c3n(CCCNCCO)c2c1)C(=O)NC4=O`, for which the figures for the inhibition in data set [3] and in data set [6] were 78% and 57%, respectively. Further, the IC50 was determined as 0.072 µM in data set [4]; 0.028 µM in data set [9]; 3.15 µM in data set [5]; 1.28 µM with NCI-H460; 1.55 µM in the data set with HCT-116 [7]; 0.732 µM on CaM kinase II. Also, the midpoint of inhibition in data set [10], the IC50, lay at 0.432 µM. For the same molecule, the results for the Fold increase with HCT-116 [1] and in the data set on HCT-116 [2] were 1.8 and 2.7, respectively. Also, in data set [12], the solubility at 168 h was determined as 8600 µg/mL (≈ 18.3 mM).
